Assay results: patent US3971814A, “Benzo(b)thiophene derivatives” (priority 1972, dated 1976)

Legend:
[1] = system: Yeast Edema of the Rat Paw; experiment: Yeast edema and determination of pain threshold in the rat paw; format: in vivo; conditions: 3 h, sc., 150 mg/kg
Procedure: test animals are male rats (SIV 50) weighing 100 to 180 g. […] 10 animals belonged to each dosage group.
The volume of the paw is determined according to the method described by Enders and Heidbrink, the pain threshold according to that described by Randall and Selitto (Arch. Int. Pharmacodyn CXI: 409, 1957).
Following initial measurements, […] of a 5% suspension of dried yeast is injected subplantarly into the right paw and the test substances are administered immediately. The blank control group is given Tragacanth mucilage only. After 3 hours the pain threshold and the volume of the paw are determined again.
The mean value of the increase in paw volume of the animals of the blank control after 3 hours is rated 100%, and the mean value of the increase in paw volume of the animals of the substance groups expressed as a percentage thereof. Pain threshold after 3 hours reflects the increase or decrease in percent, compared to the initial value.
In order to be able to calculate the ED50 according to the method by Lichtfield and Wilcoxon (J.P.E.T. 96:99, 1949), those animals in a dose group are considered protected when the paw swelling was at least 40% less than that of the blank control.

Granulation Tissue [2] = experiment: Cotton-pellet test (granulation tissue); format: in vivo; conditions: rat, sc., 2×75,0 mg/kg daily, section K
Procedure: test animals are male rats (SIV 50) weighing 110 to 200 g. All test animals are kept fasting for 16 to 18 hours prior to the implantation of the pellets; after that food and water were available ad libitum. Each dose level of the chemical tested was administered to 12 animals. The substances were suspended in 1% Tragacanth mucilage and administered intragastrically by means of a stomach tube. The substances to be investigated and the control suspensions are administered once on the operating day following operation, and twice a day on the following 6 days (at intervals of 6 to 8 hours). The type of application and volume of liquid corresponded to that under B.
Under light ether anesthesia 4 sterile cotton pellets were implanted under the skin on the back of the animal. The weight of one pellet was 50 mg ± 0.5 mg. After 7 days treatment, the animals were sacrificed, the pellets removed with the granulation tissue, weighed and then dried in the incubator at +80°C to constant weight. The average dry weight of the granulation tissue of the control group was rated 100%, and deviations of the mean weights of the group treated with the test substance determined as a percentage thereof.
The weight of the animals is measured daily throughout the tests, and the percental increase determined. At the end of some tests, moreover, the suprarenal glands are removed and their weight determined.

Granulation Tissue [3] = experiment: Cotton-pellet test (granulation tissue); format: in vivo; conditions: rat, sc., section K; for increase in body weight %: control 27
in vivo = conditions: mouse

CCN(CC)CCNC(=N)c1sc2ccccc2c1O [Example 30]
change in vivo at 150 mg/kg ([1]; section K (control -26)): 18%
response vs control in vivo at 150 mg/kg ([1]; section K, read-out: volume (paw, control = 100%)): 53%
granulation tissue % dry weight (Granulation Tissue [2]): 68%
granulation tissue % dry weight (Granulation Tissue [3]; 2×50,0 mg/kg daily): 82%
increase in body weight % (Granulation Tissue [3]; 2×50,0 mg/kg daily): 27%
increase in body weight % (Granulation Tissue [3]; 2×75,0 mg/kg daily): 27%
LD50 (in vivo; po): ~1000 mg/kg
LD50 (in vivo; sc): ~1000 mg/kg
